What all share (assay): MIC, serial dilution method (CLSI)
For one assay, the system named is Bacillus cereus. The assay is classed as cell-based. How it is done:
(§1) These inoculums were each in diluted 1:100 in Müller Hinton (MH) broth (Sigma, Copenhagen, Denmark). From the diluted inoculums 100 μl was transferred to each well in a 96-well plate and mixed with the compound to be MIC determined. The plate was incubated for 24 hours at 37° C. (without shaking). The MIC value was determined as the lowest concentration in which no bacterial growth could be visually detected. All MIC determinations were done in duplicates. […] Since all derivatives are new, no control strains (with reference MIC values) were available.

Another assay relates to Streptococcus equi. Format: cell-based. How it is done: as §1
The test system of the next assay is Listeria monocytogenes. Format: cell-based. How it is done:
as §1

A further assay concerns Salmonella enteritidis. Format: cell-based. How it is done:
as §1

Another assay has as its system E. coli APEC O2. The assay is classed as cell-based, Escherichia coli. How it is done:
as §1

A further assay relates to S. aureus CC398. Format: cell-based, Staphylococcus aureus. How it is done:
as §1

In another assay the test system is S. aureus USA300. The assay is classed as cell-based, Staphylococcus aureus. How it is done: as §1
A further assay deals with E. faecium. The assay is classed as cell-based, Enterococcus faecium. How it is done:
as §1

The next assay concerns E. faecalis. The assay is classed as cell-based, Enterococcus faecalis. How it is done:
as §1

Assay [1] relates to Staphylococus pseudintermedius. The assay is classed as cell-based, Staphylococcus pseudintermedius. How it is done:
as §1

[2] abbreviates: MH broth, 24 hours at 37° C., set to 256 if growth at […].
[3] abbreviates: Salmonella enteritidis, MH broth, 24 hours at 37° C., set to 256 if growth at […].
The mark [4] stands for this setting: E. coli APEC O2, MH broth, 24 hours at 37° C., set to 256 if growth at […].
Setting [5] is: S. aureus CC398 (MRSA strain), MH broth, 24 hours at 37° C., set to 256 if growth at […].
The mark [6] stands for this setting: S. aureus USA300, MH broth, 24 hours at 37° C., set to 256 if growth at […].
Setting [7] is: E. faecium, MH broth, 24 hours at 37° C., set to 256 if growth at […].
Where [8] appears, read: E. faecalis, MH broth, 24 hours at 37° C., set to 256 if growth at […].
[9] abbreviates: Staphylococus pseudintermedius, MH broth, 24 hours at 37° C., set to 256 if growth at […].
Setting [10] is: Salmonella enterica, ENTERITIDIS, 24 h, read-out: MIC.
[11] abbreviates: Escherichia coli, APECO2, 24 h, read-out: MIC.
Setting [12] is: Staphylococcus aureus, MRSA, 24 h, read-out: MIC.
Where [13] appears, read: Staphylococcus aureus, USA300, 24 h, read-out: MIC.
Where [14] appears, read: Enterococcus faecium, 24 h, read-out: MIC.
The mark [15] stands for this setting: Enterococcus faecalis, 24 h, read-out: MIC.
[16] abbreviates: Staphylococcus pseudintermedius, 24 h, read-out: MIC.

Read-outs that look alike come from different tables or passages of the source.

As to `CCOC(=O)CC[N+](C)(C)CCCN1c2ccccc2Sc2ccc(Cl)cc21` [Chlorpromazine 3-Ethoxy-3-oxo-1-propyl], the MIC in the assay on Bacillus cereus (setting [2]) was found to be 128 µg/mL; against Streptococcus equi (setting [2]) it was 32 µg/mL; against Listeria monocytogenes (setting [2]), 64 µg/mL; against Salmonella enteritidis (setting [3]) it was 64 µg/mL; in the assay with E. coli APEC O2 (setting [4]), 128 µg/mL; with S. aureus CC398 (setting [5]), 64 µg/mL. Also, the MIC against S. aureus USA300 (setting [6]) amounted to 64 µg/mL; in the assay on E. faecium (setting [7]) it was 32 µg/mL; against E. faecalis (setting [8]) it was 64 µg/mL; in assay [1] (setting [9]), 32 µg/mL.
`C[N+](C)(CCCN1c2ccccc2Sc2ccc(Cl)cc21)Cc1ccccc1` [Chlorpromazine Benzyl]: the MIC was 4 µg/mL with Bacillus cereus (setting [2]); 2 µg/mL in the assay on Streptococcus equi (setting [2]); 8 µg/mL in the assay on Listeria monocytogenes (setting [2]); 64 µg/mL in the assay on Salmonella enteritidis (setting [3]); 64 µg/mL in the assay with E. coli APEC O2 (setting [4]); 4 µg/mL against S. aureus CC398 (setting [5]). The MIC with S. aureus USA300 (setting [6]) was determined as 8 µg/mL; against E. faecium (setting [7]) it was 16 µg/mL; with E. faecalis (setting [8]) it was 16 µg/mL; in [1] (setting [9]) it was 2 µg/mL.
In the case of `C=CC[N+](C)(C)CCC=C1c2ccccc2Sc2ccc(Cl)cc21` [Chlorprothixene 2-Propene-1-yl], the MIC in the assay on Bacillus cereus (setting [2]) is 32 µg/mL; with Streptococcus equi (setting [2]), 8 µg/mL; against Listeria monocytogenes (setting [2]) it was 32 µg/mL; with Salmonella enteritidis (setting [3]), 128 µg/mL; against E. coli APEC O2 (setting [4]), 128 µg/mL; in the assay on S. aureus CC398 (setting [5]) it was 16 µg/mL. Besides, the MIC in the assay with S. aureus USA300 (setting [6]) was found to be 16 µg/mL; in the assay with E. faecium (setting [7]) it was 64 µg/mL; against E. faecalis (setting [8]), 128 µg/mL; in [1] (setting [9]), 8 µg/mL.
As for `COC(=O)CCCCC[N+](C)(C)CCC=C1c2ccccc2Sc2ccc(Cl)cc21` [Chlorprothixene 6-Methoxy-6-oxo-1-hexyl], the MIC was 8 µg/mL against Bacillus cereus (setting [2]); 8 µg/mL against Streptococcus equi (setting [2]); 8 µg/mL in the assay with Listeria monocytogenes (setting [2]); 128 µg/mL in the assay on Salmonella enteritidis (setting [3]); 128 µg/mL against E. coli APEC O2 (setting [4]); 8 µg/mL against S. aureus CC398 (setting [5]). In addition, the MIC in the assay on S. aureus USA300 (setting [6]) worked out at 8 µg/mL; with E. faecium (setting [7]) it was 64 µg/mL; with E. faecalis (setting [8]), 128 µg/mL; in assay [1] (setting [9]) it was 8 µg/mL.
Turning to `C[N+](C)(CCC=C1c2ccccc2Sc2ccc(Cl)cc21)Cc1ccccc1` [Chlorprothixene Benzyl], the MIC with Bacillus cereus (setting [2]) is 16 µg/mL; in the assay with Streptococcus equi (setting [2]), 2 µg/mL; against Listeria monocytogenes (setting [2]), 32 µg/mL; in the assay on Salmonella enteritidis (setting [3]) it was 64 µg/mL; in the assay with E. coli APEC O2 (setting [4]) it was 64 µg/mL; against S. aureus CC398 (setting [5]), 2 µg/mL. The MIC in the assay on S. aureus USA300 (setting [6]) came out at 4 µg/mL; against E. faecium (setting [7]), 16 µg/mL; against E. faecalis (setting [8]), 16 µg/mL; in assay [1] (setting [9]) it was 2 µg/mL.
In the case of `C[N+](C)(C)CCCN1c2ccccc2Sc2ccc(Cl)cc21.[I-]` [Compound S2, 3-(2-chloro-10H-phenothiazin-10-yl)-N,N,N-trimethylpropan-1-aminium iodide], the minimal inhibitory concentration (MIC) in the assay with Bacillus cereus (24 h, read-out: MIC) worked out at 32 µg/mL; in the assay on Streptococcus equi (24 h, read-out: MIC) it was 16 µg/mL; in the assay with Listeria monocytogenes (24 h, read-out: MIC) it was 64 µg/mL; with Salmonella enteritidis (setting [10]), 256 µg/mL; with E. coli APEC O2 (setting [11]), 256 µg/mL; with S. aureus CC398 (setting [12]), 32 µg/mL. In addition, the minimal inhibitory concentration (MIC) in the assay with S. aureus USA300 (setting [13]) was found to be 32 µg/mL; in the assay with E. faecium (setting [14]), 32 µg/mL; with E. faecalis (setting [15]), 128 µg/mL; in [1] (setting [16]), 8 µg/mL.
For the compound `CC[N+](C)(C)CCCN1c2ccccc2Sc2ccc(Cl)cc21.[Br-]` [Compound S3, 3-(2-chloro-10H-phenothiazin-10-yl)-N-ethyl-N,N-dimethylpropan-1-aminium bromide], the minimal inhibitory concentration (MIC) in the assay with Bacillus cereus (24 h, read-out: MIC) came to 32 µg/mL; in the assay with Streptococcus equi (24 h, read-out: MIC), 16 µg/mL; in the assay on Listeria monocytogenes (24 h, read-out: MIC), 32 µg/mL; in the assay with Salmonella enteritidis (setting [10]), 256 µg/mL; with E. coli APEC O2 (setting [11]) it was 256 µg/mL; in the assay with S. aureus CC398 (setting [12]), 16 µg/mL. Also, the MIC in the assay with S. aureus USA300 (setting [13]) was 16 µg/mL; in the assay on E. faecium (setting [14]), 32 µg/mL; with E. faecalis (setting [15]), 128 µg/mL; in assay [1] (setting [16]) it was 8 µg/mL.
As to `CC(C)[N+](C)(C)CCCN1c2ccccc2Sc2ccc(Cl)cc21.[Br-]` [Compound S4, 3-(2-chloro-10H-phenothiazin-10-yl)-N-isopropyl-N,N-dimethylpropan-1-aminium bromide], the minimum inhibitory concentration (MIC) was 32 µg/mL in the assay with Bacillus cereus (24 h, read-out: MIC); 32 µg/mL with Streptococcus equi (24 h, read-out: MIC); 32 µg/mL with Listeria monocytogenes (24 h, read-out: MIC); 128 µg/mL with Salmonella enteritidis (setting [10]); 128 µg/mL in the assay with E. coli APEC O2 (setting [11]); 16 µg/mL in the assay with S. aureus CC398 (setting [12]). Further, the MIC in the assay on S. aureus USA300 (setting [13]) came to 16 µg/mL; in the assay with E. faecium (setting [14]), 64 µg/mL; with E. faecalis (setting [15]), 128 µg/mL; in assay [1] (setting [16]), 8 µg/mL.
`CC(C)CC[N+](C)(C)CCCN1c2ccccc2Sc2ccc(Cl)cc21.[Br-]` [Compound S5, N-(3-(2-chloro-10H-phenothiazin-10-yl)propyl)-N,N,3-trimethylbutan-1-aminium bromide]: the MIC with Bacillus cereus (24 h, read-out: MIC) turned out to be 64 µg/mL; in the assay on Streptococcus equi (24 h, read-out: MIC) it was 8 µg/mL; in the assay on Listeria monocytogenes (24 h, read-out: MIC) it was 32 µg/mL; in the assay on Salmonella enteritidis (setting [10]) it was 128 µg/mL; in the assay on E. coli APEC O2 (setting [11]) it was 128 µg/mL; in the assay with S. aureus CC398 (setting [12]), 16 µg/mL. Moreover, the MIC in the assay with S. aureus USA300 (setting [13]) amounted to 16 µg/mL; with E. faecium (setting [14]), 32 µg/mL; in the assay with E. faecalis (setting [15]) it was 32 µg/mL; in assay [1] (setting [16]) it was 8 µg/mL.
Take `CCCCC[N+](C)(C)CCCN1c2ccccc2Sc2ccc(Cl)cc21.[Br-]` [Compound S6, N-(3-(2-chloro-10H-phenothiazin-10-yl)propyl)-N,N-dimethylpentan-1-aminium bromide]: the minimum inhibitory concentration (MIC) came out at 64 µg/mL with Bacillus cereus (24 h, read-out: MIC); 32 µg/mL with Streptococcus equi (24 h, read-out: MIC); 64 µg/mL in the assay with Listeria monocytogenes (24 h, read-out: MIC); 256 µg/mL in the assay on Salmonella enteritidis (setting [10]); 256 µg/mL with E. coli APEC O2 (setting [11]); 64 µg/mL in the assay on S. aureus CC398 (setting [12]). The MIC stood at 64 µg/mL in the assay with S. aureus USA300 (setting [13]), 64 µg/mL in the assay with E. faecium (setting [14]), 128 µg/mL in the assay with E. faecalis (setting [15]) and 32 µg/mL in assay [1] (setting [16]).
Consider `CC(CN1c2ccccc2Sc2ccccc21)N(C)C.Cl` (centres unmarked) [Compound S12, N,N-dimethyl-1-(10H-phenothiazin-10-yl)propan-2-amine hydrochloride, reference compound], for which the MIC came out at 256 µg/mL in the assay with Bacillus cereus (24 h, read-out: MIC); 64 µg/mL with Streptococcus equi (24 h, read-out: MIC); 128 µg/mL in the assay with Listeria monocytogenes (24 h, read-out: MIC); 256 µg/mL in the assay with Salmonella enteritidis (setting [10]); 128 µg/mL in the assay with E. coli APEC O2 (setting [11]); 128 µg/mL with S. aureus CC398 (setting [12]). The MIC was determined as 128 µg/mL in the assay on S. aureus USA300 (setting [13]), 256 µg/mL in the assay with E. faecium (setting [14]), 128 µg/mL in the assay on E. faecalis (setting [15]) and 64 µg/mL in assay [1] (setting [16]).
`CCCCCCCCCCCC[N+](C)(C)CC/C=C1/c2ccccc2Sc2ccc(Cl)cc21.[Br-]` [Compound S39, (Z)—N-(3-(2-chloro-9H-thioxanthen-9-ylidene)propyl)-N,N-dimethyldodecan-1-aminium bromide]: the MIC with S. aureus USA300 (setting [13]) is 4 µg/mL.
`CCCCCCCCCCCCCC[N+](C)(C)C(C)CN1c2ccccc2Sc2ccccc21.[Br-]` (centres unmarked) [Compound S44, N-(1-(10H-phenothiazin-10-yl)propan-2-yl)-N,N-dimethyltetradecan-1-aminium bromide]: in the assay with S. aureus USA300 (setting [6]), the MIC is listed as 8/16.
With `CC(C)=CCCC(C)CC[N+](C)(C)C(C)CN1c2ccccc2Sc2ccccc21.Cc1ccc(S(=O)(=O)[O-])cc1` (centres unmarked) [Compound S45, N-(1-(10H-phenothiazin-10-yl)propan-2-yl)-N,N,3,7-tetramethyloct-6-en-1-aminium 4-methylbenzenesulfonate], the MIC in the assay with S. aureus USA300 (setting [13]) came to 4 µg/mL.
